{"source": "patent US8153581B2", "about": "“Process for producing an injectable medicament preparation” (KTB Tumorforschungs GmbH, priority 1999, dated 2012)", "key": {"albumin [1]": {"target": "T1, albumin (Homo sapiens, UniProt P02768)", "T1 sequence (P02768 25-609)": "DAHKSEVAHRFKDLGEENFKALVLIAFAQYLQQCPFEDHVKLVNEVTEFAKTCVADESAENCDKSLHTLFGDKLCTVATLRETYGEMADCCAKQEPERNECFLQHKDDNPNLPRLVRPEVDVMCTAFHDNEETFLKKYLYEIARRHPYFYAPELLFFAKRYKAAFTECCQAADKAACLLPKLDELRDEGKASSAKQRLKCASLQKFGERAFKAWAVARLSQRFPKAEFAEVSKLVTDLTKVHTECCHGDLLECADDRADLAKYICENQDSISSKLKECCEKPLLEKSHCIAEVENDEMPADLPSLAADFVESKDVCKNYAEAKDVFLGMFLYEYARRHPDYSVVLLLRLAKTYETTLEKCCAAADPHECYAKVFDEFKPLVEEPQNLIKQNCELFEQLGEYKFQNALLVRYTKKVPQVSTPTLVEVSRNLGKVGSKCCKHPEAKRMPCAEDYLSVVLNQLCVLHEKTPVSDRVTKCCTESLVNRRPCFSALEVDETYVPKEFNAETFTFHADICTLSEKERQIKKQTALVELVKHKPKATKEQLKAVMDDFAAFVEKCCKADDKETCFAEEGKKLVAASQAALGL", "assay": "Incubation with human plasma, gel filtration chromatography (Superdex 200)", "type": "in vitro ADME", "set-up": "with 1.0 ml of human plasma; from tissue; host or cells: human blood plasma", "details": "250 μl of 100 μM solution with 1.0 ml human plasma, 5 minutes"}, "albumin [2]": {"target": "T1, albumin", "details": "37° C.", "method": "In this experiment, the plasma sample was separated, after the incubation had taken place, on a POROS®-20 anion exchange column (the proteins were detected at 254 nm while the anthracycline was detected by fluorescence).\n1.4 mg of 2 (Mr 1374) are dissolved, at room temperature, in 1.0 ml of phosphate buffer (0.15 M NaCl, 0.004 M sodium phosphate, pH 6.5) (1000 μm solution)."}, "[3]": {"tested_on": "RENCA, renal cell carcinoma", "assay": "RENCA (renal cell carcinoma) model, antitumour activity", "type": "in vivo, Balc/c mice", "from_the_text": "(§1) The biological data listed below clarify the in vivo activity of DOXO-HYD as compared with that of free doxorubicin: in what is termed the RENCA (renal cell carcinoma)-model, doxorubicin and DOXO-HYD were compared with each other, at approximately equitoxic doses, as regards their antitumour activity (intravenous therapy 10 days after injecting about 1 million kidney carcinoma cells into the left kidney).\n(§2) Animals: Balc/c mice, female; Tumour: RENCA, renal cell carcinoma\n(§3) Therapy: Intravenous (i.v.) on day (d) 10, 13, 17 and 20, end of experiment on d24"}, "[4]": {"assay": "RENCA model, body weight change", "type": "in vivo, Balc/c mice", "details": "i.v. on d 10, 13, 17 and 20; approximately equitoxic doses", "from_the_text": "as §1, §2, §3"}, "[5]": {"details": "as compared with the control group and the doxorubicin-treated group, 4 × 20 mmol/kg i.v."}}, "note": "Read-outs that look alike come from different tables or passages of the source."}
{"compound": "O=C(O)c1cc(N2C(=O)C=CC2=O)ccc1-c1c2ccc(=O)cc-2oc2cc(O)ccc12", "note": "[fluoresceinmaleimide]", "values": [{"measurement": "binding to albumin in human plasma", "setting": "albumin [1]", "result": "majority of the fluoresceinmaleimide is bound to albumin"}]}
{"compound": "COc1cccc2c1C(=O)c1c(O)c3c(c(O)c1C2=O)C[C@@](O)(C(CO)=NNC(=O)CCCCCN1C(=O)C=CC1=O)C[C@@H]3O[C@H]1C[C@H](N)[C@H](O)[C@H](C)O1", "note": "[DOXO-EMCH, 6-maleimidocaproic acid hydrazone derivative of doxorubicin]", "values": [{"measurement": "binding to albumin in human plasma", "setting": "albumin [2]; 250μ of 2000 μM solution with 1.0 ml human plasma, 30 seconds", "result": "majority of the DOXO-EMCH is bound to albumin"}]}
{"compound": "COc1cccc2c1C(=O)c1c(O)c3c(c(O)c1C2=O)C[C@@](O)(/C(CO)=N/NC(=O)Cc1ccc(N2C(=O)C=CC2=O)cc1)C[C@@H]3OC1CC(C)C(O)C(N)C1.Cl", "note": "(some centres unmarked) [DOXO-HYD]", "values": [{"measurement": "covalent binding to albumin in human blood plasma", "setting": "albumin [2]; human blood plasma, 5 minutes of incubation", "result": "most of the DOXO-HYD is covalently bonded to the albumin"}, {"measurement": "antitumour activity", "setting": "[3]; RENCA model, i.v. d 10, 13, 17, 20, 4 × 20 mmol/kg, end d24", "result": "very good antitumour activity"}, {"measurement": "kidney tumour volume", "setting": "[3]; [5]", "result": "marked reduction"}, {"measurement": "number of lung metastases", "setting": "[3]; [5]", "result": "marked reduction"}, {"measurement": "Average decrease in body weight (%) d 1-24", "setting": "[4]", "result": "−15", "unit": "%"}]}
{"compound": "COc1cccc2c1C(=O)c1c(O)c3c(c(O)c1C2=O)C[C@@](O)(C(=O)CO)C[C@@H]3O[C@H]1C[C@H](N)[C@H](O)[C@H](C)O1", "note": "[Doxorubicin, doxorubicin, reference compound]", "values": [{"measurement": "Average decrease in body weight (%) d 1-24", "setting": "[4]", "result": "−15", "unit": "%"}]}
